Each compound was assayed against Human Factor D (Homo sapiens (Human), UniProt P00746) (assay: Human Factor D Assay). Details: Human Factor D 80 nM, substrate Z-L-Lys-SBzl, assay according to Example 3.
Type: biochemical
Procedure: The assay according to Example 3 was used to determine the IC50's of the compounds. Other standard factor D inhibition assays are also available.
Human Factor D (purified from human serum, Complement Technology, Inc.) at 80 nM final concentration is incubated with test compound at various concentrations for 5 min at room temperature in 50 mM Tris, 1M NaCl, pH 7.5. A synthetic substrate Z-L-Lys-SBzl and DTNB (Ellman's reagent) are added to final concentrations of 100 μM each. Absorbance at 405 nm (A405) is recorded at 30 second intervals for 30 min using a microplate spectrophotometer. IC50 values are calculated by nonlinear regression of complement Factor D reaction rates as a function of test compound concentration.

Human Factor D, sequence (P00746 26-253): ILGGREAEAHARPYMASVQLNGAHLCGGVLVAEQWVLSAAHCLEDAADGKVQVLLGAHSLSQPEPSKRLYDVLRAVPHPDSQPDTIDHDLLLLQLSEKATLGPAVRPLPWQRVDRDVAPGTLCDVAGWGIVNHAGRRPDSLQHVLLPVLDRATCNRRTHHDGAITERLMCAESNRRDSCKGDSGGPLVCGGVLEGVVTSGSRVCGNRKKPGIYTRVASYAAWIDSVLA

Compound	IC50 [nM]
CC(=O)c1cn(CC(=O)N2[C@H](C(=O)Nc3nc(C(F)(F)F)cc(F)c3C)C[C@@]3(C)C[C@@H]23)c2c(C)cc(-c3ccc4nc(C)nn4c3)cc12 [Compound 58, (1R,3S,5R)-2-(2-(3-acetyl-7-methyl-5-(2-methyl-[1,2,4]triazolo[1,5-a]pyr-idin-6-yl)-1H-indol-1-yl)-acetyl)-N-(4-fluoro-3-methyl-6-(trifluorometh-yl)pyridin-2-yl)-5-methyl-2-azabicyclo[3.1.0]hexane-3-carboxamide]	< 1000
CC(=O)c1cn(CC(=O)N2[C@H](C(=O)Nc3nc(Br)ccc3C)C[C@@]3(C)C[C@@H]23)c2ccc(NC3(C)COC3)cc12 [Compound 26, (1R,3S,5R)-2-(2-(3-acetyl-5-((3-methyloxetan-3-yl)-amino)-1H-indol-1-yl)-acetyl)-N-(6-bromo-3-methylpyridin-2-yl)-5-methyl-2-azabicyclo[3.1.0] hexane-3-carboxamide]	< 1000
COCc1ccc(C(F)(F)F)nc1NC(=O)[C@@H]1C[C@@]2(C)C[C@H]2N1C(=O)Cn1cc(C(C)=O)c2cc(-c3cnc4cc(C)nn4c3)cc(C)c21 [Compound 53, (1R,3S,5R)-2-(2-(3-acetyl-7-methyl-5-(2-methylpyr-azolo[1,5-a]pyrimidin-6-yl)-1H-indol-1-yl)acetyl)-N-(3-(methoxymethyl)-6-(trifluoromethyl)pyridin-2-yl)-5-methyl-2-azabicyclo [3.1.0]hexane-3-carbox-amide]	< 1000
CC(=O)c1cn(CC(=O)N2[C@H](C(=O)N[C@@H](C)C(F)=C(C)C)C[C@@]3(C)C[C@@H]23)c2c(C)nc(-c3cnc4cc(C)nn4c3)cc12 [Compound 32, (1R,3S,5R)-2-(2-(3-acetyl-7-methyl-5-(2-methylpyr-azolo[1,5-a]pyrimidin-6-yl)-1H-pyrrolo[2,3-c]pyr-idin-1-yl)acetyl)-N-((S)-3-fluoro-4-methylpent-3-en-2-yl)-5-methyl-2-azabi-cyclo[3.1.0]hexane-3-car-boxamide]	< 1000
CC(=O)c1nn(CC(=O)N(C)[C@@H](C)C(=O)Nc2nc(Br)ccc2C)c2cc3c(cc12)-c1cnc(C)nc1CC=C3 [Compound 109, (S)-2-(2-(11-acetyl-3-methylpyrimido[4′,5′:6,7]cyclohepta[1,2-f]indazol-9(5H)-yl)-N-methylacetamido)-N-(6-bromo-3-methylpyridin-2-yl)propanamide]	< 1000
CC(=O)c1cn(CC(=O)N2C[C@H](F)C[C@H]2C(=O)N[C@H](C)C(F)=C(C)C)c2c(C)cc(-c3cnc4cc(C)nn4c3)cc12 [Compound 34, (2S,4R)-1-(2-(3-acetyl-7-methyl-5-(2-methylpyr-azolo[1,5-a]pyrimidin-6-yl)-1H-indol-1-yl)acetyl)-4-fluoro-N-((R)-3-fluoro-4-methylpent-3-en-2-yl)-pyrrolidine-2-carboxamide]	< 1000
CC(=O)c1cn(CC(=O)N2[C@H](C(=O)Nc3nc(C(F)(F)F)cnc3C)C[C@@]3(C)C[C@@H]23)c2c(C)cc(-c3cnc(C)nc3)cc12 [Compound 59, (1R,3S,5R)-2-(2-(3-acetyl-7-methyl-5-(2-methylpyr-imidin-5-yl)-1H-indol-1-yl)acetyl)-5-methyl-N-(3-methyl-6-(trifluorometh-yl)pyrazin-2-yl)-2-azabi-cyclo[3.1.0]hexane-3-car-boxamide]	1000 to 10000
[2H]C([2H])([2H])OCc1ccc(C(F)(F)F)nc1NC(=O)[C@@H]1C[C@@]2(C)C[C@H]2N1C(=O)Cn1cc(C(C)=O)c2cc(-c3ccc4nc(C)nn4c3)cc(C)c21 [Compound 81, (1R,3S,5R)-2-(2-(3-acetyl-7-methyl-5-(2-methyl-[1,2,4]triazolo[1,5-a]pyr-idin-6-yl)-1H-indol-1-yl)-acetyl)-N-(3-((methoxy-d3)methyl-d2)-6-(trifluoro-methyl)pyridin-2-yl)-5-methyl-2-azabicyclo[3.1.0] hexane-3-carboxamide]	< 1000
CC(=O)c1cn(CC(=O)N2[C@H](C(=O)Nc3nc(Br)ccc3C3CC3)C[C@@]3(C)C[C@@H]23)c2c(C)cc(-c3cnc4cc(C)nn4c3)cc12 [Compound 8, (1R,3S,5R)-2-(2-(3-acetyl-7-methyl-5-(2-methylpyr-azolo[1,5-a]pyrimidin-6-yl)-1H-indol-1-yl)acetyl)-N-(6-bromo-3-cycloprop-ylpyridin-2-yl)-5-methyl-2-azabicyclo[3.1.0]hexane-3-carboxamide]	> 10000
CC(=O)c1cn(CC(=O)N2[C@H](C(=O)Nc3nc(C(F)(F)F)ccc3C)C[C@@]3(C)C[C@@H]23)c2c(C)nc(-c3cnc4cc(C)nn4c3)cc12 [Compound 55, (1R,3S,5R)-2-(2-(3-acetyl-7-methyl-5-(2-methylpyr-azolo[1,5-a]pyrimidin-6-yl)-1H-pyrrolo[2,3-c]pyr-idin-1-yl)acetyl)-5-methyl-N-(3-methyl-6-(trifluoro-methyl)pyridin-2-yl)-2-azabicyclo[3.1.0]hexane-3-carboxamide]	< 1000
CC(=O)c1cn(CC(=O)N2[C@H](C(=O)Nc3nc(C(F)(F)F)cnc3C)C[C@@]3(C)C[C@@H]23)c2c(C)cc(-c3cnc4cc(C)nn4c3)cc12 [Compound 60, (1R,3S,5R)-2-(2-(3-acetyl-7-methyl-5-(2-methylpyr-azolo[1,5-a]pyrimidin-6-yl)-1H-indol-1-yl)acetyl)-5-methyl-N-(3-methyl-6-(trifluoromethyl)pyrazin-2-yl)-2-azabicyclo[3.1.0] hexane-3-carboxamide]	< 1000
CC(=O)c1cn(CC(=O)N2[C@H](C(=O)Nc3nc(C(F)(F)F)ccc3C)C[C@@]3(C)C[C@@H]23)c2c(C)nc(-c3ccc4nc(C)nn4c3)cc12 [Compound 56, (1R,3S,5R)-2-(2-(3-acetyl-7-methyl-5-(2-methyl-[1,2,4]triazolo[1,5-a]pyr-idin-6-yl)-1H-pyrrolo[2,3-c]pyridin-1-yl)acetyl)-5-methyl-N-(3-methyl-6-(trifluoromethyl)pyridin-2-yl)-2-azabicyclo[3.1.0] hexane-3-carboxamide]	< 1000
CC(=O)c1cn(CC(=O)N2[C@H](C(=O)Nc3ccn(CC(F)(F)F)n3)C[C@@]3(C)C[C@@H]23)c2c(C)cc(-c3cnc4cc(C)nn4c3)cc12 [Compound 64, (1R,3S,5R)-2-(2-(3-acetyl-7-methyl-5-(2-methylpyr-azolo[1,5-a]pyrimidin-6-yl)-1H-indol-1-yl)acetyl)-5-methyl-N-(1-(2,2,2-tri-fluoroethyl)-1H-pyrazol-3-yl)-2-azabicyclo[3.1.0] hexane-3-carboxamide]	< 1000
CC(=O)c1cn(CC(=O)N2[C@H](C(=O)Nc3nc(Br)ccc3Cl)C[C@@]3(C)C[C@@H]23)c2c(C)nc(-c3cnc(C)nc3)cc12 [Compound 21, (1R,3S,5R)-2-(2-(3-acetyl-7-methyl-5-(2-methylpyr-imidin-5-yl)-1H-pyrrolo [2,3-c]pyridin-1-yl)acetyl)-N-(6-bromo-3-chloropyr-idin-2-yl)-5-methyl-2-aza-bicyclo[3.1.0]hexane-3-carboxamide]	< 1000
CC(=O)c1cn(CC(=O)N2C[C@H]3C[C@H]3[C@H]2C(=O)N[C@H](C)C(F)=C(C)C)c2c(C)cc(-c3cnc4cc(C)nn4c3)cc12 [Compound 35, (1R,2S,5S)-3-(2-(3-acetyl-7-methyl-5-(2-methylpyr-azolo[1,5-a]pyrimidin-6-yl)-1H-indol-1-yl)acetyl)-N-((R)-3-fluoro-4-methyl-pent-3-en-2-yl)-3-azabi-cyclo[3.1.0]hexane-2-car-boxamide]	< 1000
CC(=O)c1cn(CC(=O)N2C[C@H](F)C[C@H]2C(=O)Nc2ccn(CC(F)(F)F)n2)c2c(C)cc(-c3cnc4cc(C)nn4c3)cc12 [Compound 66, (2S,4R)-1-(2-(3-acetyl-7-methyl-5-(2-methylpyr-azolo[1,5-a]pyrimidin-6-yl)-1H-indol-1-yl)acetyl)-4-fluoro-N-(1-(2,2,2-tri-fluoroethyl)-1H-pyrazol-3-yl)pyrrolidine-2-carbox-amide]	< 1000
CC(=O)c1cn(CC(=O)N2[C@H](C(=O)Nc3nc(C(F)(F)F)ccc3C#N)C[C@@]3(C)C[C@@H]23)c2c(C)nc(-c3cnc4cc(C)nn4c3)cc12 [Compound 23, (1R,3S,5R)-2-(2-(3-acetyl-7-methyl-5-(2-methylpyr-azolo[1,5-a]pyrimidin-6-yl)-1H-pyrrolo[2,3-c]pyr-idin-1-yl)acetyl)-N-(3-cyano-6-(trifluoromethyl)-pyridin-2-yl)-5-methyl-2-azabicyclo[3.1.0]hexane-3-carboxamide]	< 1000
CC(=O)c1cn(CC(=O)N2[C@H](C(=O)N[C@@H](C)C(F)=C(C)C)C[C@@]3(C)C[C@@H]23)c2c(C)nc(-c3cnc(C)nc3)cc12 [Compound 39, (1R,3S,5R)-2-(2-(3-acetyl-7-methyl-5-(2-methylpyr-imidin-5-yl)-1H-pyrrolo [2,3-c]pyridin-1-yl)acetyl)-N-((S)-3-fluoro-4-methyl-pent-3-en-2-yl)-5-methyl-2-azabicyclo[3.1.0]hexane-3-carboxamide]	< 1000
CC(=O)c1cn(CC(=O)N2C[C@H](F)C[C@H]2C(=O)Nc2ccn(CC(F)(F)F)n2)c2ccc(-c3cnc4cc(C)nn4c3)cc12 [Compound 67, (2S,4R)-1-(2-(3-acetyl-5-(2-methylpyrazolo[1,5-a]pyrimidin-6-yl)-1H-indol-1-yl)acetyl)-4-fluoro-N-(1-(2,2,2-trifluoroethyl)-1H-pyrazol-3-yl)pyrrolidine-2-carboxamide]	< 1000
CC(=O)c1cn(CC(=O)N2[C@H](C(=O)Nc3nc(C(F)(F)F)ccc3C)C[C@@]3(C)C[C@@H]23)c2c(C)cc(-c3ccc4nc(C#N)nn4c3)cc12 [Compound 22, (1R,3S,5R)-2-(2-(3-acetyl-5-(2-cyano-[1,2,4]triazolo [1,5-a]pyridin-6-yl)-7-methyl-1H-indol-1-yl)acet-yl)-5-methyl-N-(3-methyl-6-(trifluoromethyl)pyridin-2-yl)-2-azabicyclo[3.1.0] hexane-3-carboxamide]	< 1000

From patent publication US20250197403A1, “HETEROARYL COMPOUNDS FOR TREATMENT OF COMPLEMENT FACTOR D MEDIATED DISORDERS” (Achillion Pharmaceuticals, Inc., priority 2020, published 2025)
